From patent publication US20230003721A1, “MITOTHERAPEUTICS FOR THE TREATMENT OF BRAIN DISORDERS” (The University of Florida Research Foundation, Inc., priority 2019, published 2023)
pEC50: −log10 of the molar value. Structures can show the parent of a compound that is named as a salt. Where two headings read alike, the source gives them in different places.

Experiments:
[1] = test system: primary neurons; test: CellTiter-Glo luminescence-based ATP assay; format: cell-based, mouse; settings: for ATP: ATP orthogonal screen, 24 h
Method: Measurement of ATP production. The total amount of ATP produced by cultured primary neurons was measured by CellTiter-Glo Luminescent Cell Viability Assay (Promega). A recombinant luciferase enzyme catalyzed the mono-oxygenation of luciferin while hydrolyzing ATP produced by the cells and emitting light. We followed the manufacturer's protocol with primary neurons on DIV14.
(§1) A CLARIOstar (BMG LABTECH) microplate reader was used to measure fluorescence of TMRM and luminescence produced from the ATP.
(§2) Mitochondrial membrane potential (Δψm) and luminescence-based ATP assays. […] Changes of ΔΨm in each well were monitored using the mitochondrial-specific, fluorescent dye TMRM (tetramethyl rhodamine, methyl ester; Molecular Probes) and measured using a CLARIOstar plate reader. […] This concentration was used throughout our experiments. […] Wells in columns 1 and 24 were not loaded with TMRM; these served to measure background signal which was subtracted from the wells to which TMRM was added. To measure the total ATP levels in neurons we utilized the CellTiter-Glo® luminescence-based ATP assay (Promega). DIV13 primary neurons were cultured for 24 h with either DMSO carrier or compound treatment, followed by removing 55 μl culture medium from each well. Plates were maintained at room temperature for 25 m, and 25 μl of CellTiter-Glo® Reagent with the substrate luciferin was then added to each well (Promega). Plates were covered with aluminum foil and shaken vigorously on an orbital shaker for 10 m at 200 rpm and maintained at room temperature for an additional 2 m in dark before being read with the plate reader set to the luminescence mode.
Compound library and hit picking rules. We screened 2400 compounds from the MicroSource Spectrum library. […] FIGS. 13A-13E provide details of the assays used from which hit picking rules were made. In essence, the average fluorescence for each compound in the TMRM assay was determined and compared to the average fluorescence for compounds in the population on each assay plate to produce a Z-score. The Z-scores for each individual compound assayed across the four replicate plates was then averaged. Because of significant well location effects (outer rows) on each assay plate (FIG. 13G), we selected primary hits as enhancing well fluorescence above the μplate by 3σplate for inner row wells (rows C-N, columns 3-22), and by 2.5σplate for outer row wells (rows A, B, O, P; columns 3-22) (FIG. 14C-D). […] All orthogonal assays employed inner wells of the 384-well plates.

[2] = test system: primary neurons; test: TMRM fluorescence assay of inner mitochondrial membrane potential (ΔΨm)
Method: Mitochondrial dyes. To assay the electrochemical potential across the inner mitochondrial membrane of cultured cells, we used the cell-permeant dye tetramethylrhodamine methyl ester (TMRM). For co-localization studies with Mt-GFP, TMRM was used at 20 nM on DIV14 and incubated for 30 min prior to imaging. For the orthogonal screen of compounds, TMRM was added to primary neurons on DIV13 at 10 nM, one hr prior to pintooling selected compounds, and incubated for 24 hr. Cells were washed 2× with pre-warmed fresh feeding media without B27 before measurements with a plate reader.
as §1, §2
Compound library and hit picking rules. We screened 2400 compounds from the MicroSource Spectrum library. […] FIGS. 13A-13E provide details of the assays used from which hit picking rules were made. In essence, the average fluorescence for each compound in the TMRM assay was determined and compared to the average fluorescence for compounds in the population on each assay plate to produce a Z-score. The Z-scores for each individual compound assayed across the four replicate plates was then averaged.

Structure (SMILES)	ATP [1]	TMRM Primary ([2]; primary screen, 12.5 μM, 24 h)	TMRM Rescreen ([2]; rescreen, 24 h)	also measured
C[C@]12CC[C@@H](O)C[C@@H]1CC[C@@H]1[C@@H]2CC[C@]2(C)C(=O)CC[C@@H]12 [androsterone]	5.63 Z-scores			TMRM Primary [2]: 3.77 Z-scores; TMRM Rescreen [2]: 4.76 Z-scores
O=C1CCc2ccc(OCCCCN3CCN(c4cccc(Cl)c4Cl)CC3)cc2N1 [aripiprazole]	3.66 Z-scores	2.98 Z-scores	7.76 Z-scores	
COc1ccc(CN=c2[nH]c(N3CCC[C@H]3CO)ncc2C(=O)NCc2ncccn2)cc1Cl [avanafil]	1.30 Z-scores	3.13 Z-scores	3.42 Z-scores	
CN1CCCC(n2nc(Cc3ccc(Cl)cc3)c3ccccc3c2=O)CC1 (stereo not drawn) [azelastine hydrochloride]	5.30 Z-scores	7.06 Z-scores	6.13 Z-scores	
CCOC(=O)[C@H](CCc1ccccc1)N[C@H]1CCc2ccccc2N(CC(=O)O)C1=O [benazepril hydrochloride]	5.26 Z-scores	3.43 Z-scores	2.43 Z-scores	
CCCCNc1ccc(C(=O)OCCOCCOCCOCCOCCOCCOCCOCCOCCOC)cc1 [benzonatate]	4.35 Z-scores	2.78 Z-scores	8.21 Z-scores	
c1ccc(-c2ccc(C(c3ccccc3)n3ccnc3)cc2)cc1 (stereo not drawn) [bifonazole]	4.00 Z-scores	3.81 Z-scores	1.84 Z-scores	
CC(C)(c1ccc(O)cc1)c1ccc(O)cc1 [bisphenol a]	4.73 Z-scores	3.35 Z-scores	7.40 Z-scores	hit in TMRM primary screen when assayed at 4 h ([2]; 12.5 μM): bisphenol a*
CCCCN1CCCCC1C(=O)Nc1c(C)cccc1C (stereo not drawn) [bupivacaine hydrochloride]	4.80 Z-scores	5.35 Z-scores	5.25 Z-scores	
COC(=O)C[C@H]1C2(C)CC34OC5(C)O[C@@]6([C@H](OC(C)=O)C(OC(C)=O)[C@]7(C)C(/C(=C(/O)C(C)C)C(=O)O[C@H]7c7ccoc7)[C@@]6(O5)[C@H](OC(C)=O)[C@@]3(O)C2OC(=O)C(C)C)[C@]14C (stereo partly drawn) [bussein]	5.58 Z-scores	3.44 Z-scores	3.92 Z-scores	
CCCCOC(=O)c1ccc(O)cc1 [butyl paraben]	3.84 Z-scores	3.42 Z-scores	4.18 Z-scores	
COC(=O)C[C@H]1C(C)(C)C(=O)[C@@H]2CC3=C(CC[C@]4(C)C3=CC(=O)O[C@H]4c3ccoc3)[C@@]1(C)C2=O [carapin-8(9)-ene]	4.89 Z-scores	3.50 Z-scores	3.82 Z-scores	
CN(C)CCN(Cc1ccc(Cl)cc1)c1ccccn1 [chloropyramine hydrochloride]	3.26 Z-scores	3.35 Z-scores	5.24 Z-scores	
CN(C)CCCN1c2ccccc2Sc2ccc(Cl)cc21 [chlorpromazine]	5.00 Z-scores	2.79 Z-scores	2.66 Z-scores	
CN(C)CC/C=C1/c2ccccc2Sc2ccc(Cl)cc21 [chlorprothixene hydrochloride]	3.17 Z-scores	6.17 Z-scores	5.04 Z-scores	
C[N+]12CCC(CC1)C(OC(=O)C(O)(c1ccccc1)c1ccccc1)C2 (stereo not drawn) [clidinium bromide]	6.21 Z-scores	2.49 Z-scores	4.11 Z-scores	pEC50 ([1]; Mus musculus, Primary neuron, dose response, 15 concentrations from 6 nM to 100 uM): 6.38; Emax ([1]; Mus musculus, Primary neuron, maximal percent increase relative to in-plate DMSO controls, dose response, read-out: ATP (Effect-size)): 20.5%; Emax ([2]; Mus musculus, Primary neuron, read-out: TMRM (Effect-size)): 14.3%; pEC50 ([2]; Mus musculus, Primary neuron, read-out: TMRM-EC50): 6.35
CCN(CC)CCOc1ccc(C(=C(Cl)c2ccccc2)c2ccccc2)cc1 [clomiphene citrate]	4.20 Z-scores	2.94 Z-scores	3.45 Z-scores	
CN1CCN(C2=Nc3cc(Cl)ccc3Nc3ccccc32)CC1 [clozapine]	3.88 Z-scores	3.24 Z-scores	5.80 Z-scores	
CN(C)CCC=C1c2ccccc2C=Cc2ccccc21 [cyclobenzaprine hydrochloride]	3.49 Z-scores	5.52 Z-scores	4.71 Z-scores	
CC1=C2C[C@H]3[C@@H](CC=C4C[C@@H](O)CC[C@@]43C)[C@@H]2CC[C@]12O[C@@H]1C[C@H](C)CN[C@H]1[C@H]2C [cyclopamine]	5.15 Z-scores	3.74 Z-scores	8.14 Z-scores	
CC(C)c1ccc2c(c1)CC[C@H]1[C@](C)(C(N)=O)CCC[C@]21C [dehydroabietamide]	4.15 Z-scores	3.42 Z-scores	5.12 Z-scores	
CC(=O)OCC(=O)[C@H]1CC[C@H]2[C@@H]3CCC4=CC(=O)CC[C@]4(C)[C@H]3CC[C@]12C [desoxycorticosterone acetate]	3.62 Z-scores	2.81 Z-scores	1.08 Z-scores	hit in TMRM primary screen when assayed at 4 h ([2]; 12.5 μM): desoxycorticosterone acetate*
CC(C)NC[C@@H](O)COc1cccc2ccccc12.Cl [dexpropranolol hydrochloride [R(+)]]	6.22 Z-scores	4.37 Z-scores	4.79 Z-scores	
CCCCOc1cc(C(=O)NCCN(CC)CC)c2ccccc2n1 [dibucaine hydrochloride]	6.22 Z-scores	3.83 Z-scores	6.82 Z-scores	
CN(C)CCOC(c1ccccc1)c1ccccc1.Cn1c(=O)c2[nH]c(Cl)nc2n(C)c1=O [dimenhydrinate]	4.94 Z-scores	3.98 Z-scores	4.31 Z-scores	
O=C(Nc1ccccc1)OCC(CN1CCCCC1)OC(=O)Nc1ccccc1 (stereo not drawn) [diperodon hydrochloride]	8.02 Z-scores	3.75 Z-scores	6.07 Z-scores	
COc1cc2nc(N3CCN(C(=O)C4COc5ccccc5O4)CC3)nc(N)c2cc1OC (stereo not drawn) [doxazosin mesylate]	4.68 Z-scores	4.39 Z-scores	5.94 Z-scores	
COc1cccc2c1C(=O)c1c(O)c3c(c(O)c1C2=O)C[C@@](O)(C(=O)CO)C[C@@H]3O[C@H]1C[C@H](N)[C@H](O)[C@H](C)O1 [doxorubicin]	4.00 Z-scores	4.02 Z-scores	5.05 Z-scores	
